Some test systems named below: MDA-MB-231; CAKI-1; SK-MEL-28; 786-0; EKVX; A498; PC-3; OVCAR-8; SK-MEL-2; BT-549; NCI-H522; Malme-3M; UACC-257; MCF7; M14; COLO 205; MOLT-4; CCRF-CEM; NCI-H226.
What all share (test): NCI anticancer screen, dose series, 48 h

SMILES strings stand for the structures.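 Tested at 5 concentrations; 48 h exposure; 96-well plates; endpoints linearly interpolated, else capped at highest concentration. GI50 is the concentration that inhibits growth by half.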 Calls of active or inactive are those of the source. No stated cut-off is given here; in the data, active = GI50 up to about 1.1 µM and inactive = higher.

`O=C(O)CSc1ccc([N+](=O)[O-])cc1[N+](=O)[O-]`: the GI50 in the assay on MDA-MB-231, with CAKI-1, with SK-MEL-28, in the assay on 786-0, with EKVX and with A498 was > 100 µM (inactive) each time. Moreover, the GI50 with PC-3, in the assay with OVCAR-8, in the assay with SK-MEL-2, with BT-549, with NCI-H522 and in the assay with Malme-3M was > 100 µM (inactive) each time. Also, the GI50 in the assay on UACC-257, in the assay on MCF7 and in the assay on M14 was > 100 µM (inactive) each time.

With `CC(=O)NC1(NC(C)=O)C2CC(C1Cc1ccccc1)C(C)(C)C2C` (stereo not drawn), the GI50 in the assay on MDA-MB-231, in the assay with CAKI-1, in the assay on COLO 205, in the assay with SK-MEL-28, with 786-0 and in the assay with EKVX was > 100 µM (inactive) in each case. The GI50 in the assay with MOLT-4, in the assay with A498, in the assay with PC-3, in the assay with CCRF-CEM, in the assay on OVCAR-8 and in the assay on BT-549 was > 100 µM (inactive) throughout. Moreover, the GI50 with NCI-H522, with Malme-3M, in the assay on UACC-257, in the assay on MCF7, in the assay with M14 and with NCI-H226 was > 100 µM (inactive) each time.

`COC(=O)C1=C(C(=O)OC)SC2(S1)C1=C(CCCC1)SC(C(=O)OC)=C2C(=O)OC`: the GI50 is 15.8 µM (inactive) in the assay on MDA-MB-231; 4.06 µM (inactive) in the assay with CAKI-1; 9.25 µM (inactive) in the assay with COLO 205; 9.29 µM (inactive) in the assay on SK-MEL-28; 13.3 µM (inactive) in the assay with EKVX; 1.93 µM (inactive) in the assay with MOLT-4. Besides, the GI50 with A498 is 6.21 µM (inactive); in the assay on PC-3 it was 5.02 µM (inactive); in the assay with CCRF-CEM, 1.7 µM (inactive); with OVCAR-8, 6.32 µM (inactive); in the assay with SK-MEL-2, 15.5 µM (inactive); in the assay with BT-549, 11.7 µM (inactive). Besides, the GI50 in the assay on NCI-H522 is 1.72 µM (inactive); with Malme-3M it was 11.4 µM (inactive); in the assay on UACC-257, 13.1 µM (inactive); in the assay on MCF7, 2.61 µM (inactive); in the assay with M14 it was 16.9 µM (inactive).

With `COc1ccc(OC)c(C23CCCC(C2)N(C)CC3)c1` (stereo not drawn), the GI50 is 21.3 µM (inactive) in the assay with MDA-MB-231; 46.5 µM (inactive) in the assay with CAKI-1; 25.3 µM (inactive) in the assay on 786-0; 43.6 µM (inactive) with EKVX; 32.1 µM (inactive) with MOLT-4; 32.3 µM (inactive) in the assay with A498. Further, the GI50 in the assay with PC-3 was 16.4 µM (inactive); with SK-MEL-2, 21.8 µM (inactive); with BT-549, 30.8 µM (inactive); in the assay with UACC-257 it was 36.6 µM (inactive); in the assay on MCF7, 16.6 µM (inactive); in the assay with M14 it was 17.6 µM (inactive).

For `COc1ccc2c(c1OC)OC[C@@H](C1=CC(=O)C=C(O)C1=O)C2`, the GI50 in the assay on MDA-MB-231 was 4.46 µM (inactive); with COLO 205, 21.3 µM (inactive); in the assay on SK-MEL-28, 16.9 µM (inactive); in the assay with 786-0, 5.38 µM (inactive); with EKVX, 12.5 µM (inactive); in the assay on MOLT-4 it was 0.838 µM (active). In addition, the GI50 in the assay with A498 is 15.3 µM (inactive); in the assay with PC-3 it was 13.1 µM (inactive); in the assay with CCRF-CEM it was 1.36 µM (inactive); in the assay with OVCAR-8, 19.1 µM (inactive); in the assay with SK-MEL-2, 15.3 µM (inactive); in the assay on BT-549, 12.8 µM (inactive). The GI50 is 2.7 µM (inactive) in the assay on NCI-H522; 12 µM (inactive) in the assay on Malme-3M; 13 µM (inactive) with UACC-257; 9.91 µM (inactive) in the assay on MCF7; 12.4 µM (inactive) with M14; 19.6 µM (inactive) in the assay with NCI-H226.

Regarding `O=C(O)C1(Cc2ccc3c(c2)CCC3)Cc2ccccc2C1`, the GI50 in the assay on MDA-MB-231 is > 100 µM (inactive); in the assay with COLO 205 it was 30.2 µM (inactive); with SK-MEL-28, 60.8 µM (inactive); with 786-0, > 100 µM (inactive); with EKVX, 54.2 µM (inactive); in the assay on MOLT-4, 71.8 µM (inactive). Also, the GI50 is 36.1 µM (inactive) in the assay with A498; 63.5 µM (inactive) with PC-3; 62.8 µM (inactive) with CCRF-CEM; 63.7 µM (inactive) with OVCAR-8; > 100 µM (inactive) in the assay with SK-MEL-2; 29.8 µM (inactive) in the assay on BT-549. Further, the GI50 in the assay on NCI-H522 was 42.3 µM (inactive); with Malme-3M, 71.3 µM (inactive); in the assay on UACC-257, > 100 µM (inactive); in the assay with MCF7, > 100 µM (inactive); in the assay with M14, > 100 µM (inactive); with NCI-H226, 91 µM (inactive).

As for `NS(=O)(=O)c1ccc(CNC(=S)NC(=O)Nc2ccc(Cl)c(Cl)c2)cc1`, the GI50 in the assay with MDA-MB-231 is 10.6 µM (inactive); with COLO 205, 33 µM (inactive); in the assay with SK-MEL-28, 21.6 µM (inactive); with 786-0, 16.8 µM (inactive); in the assay with MOLT-4 it was 15.9 µM (inactive); in the assay with A498, 16.2 µM (inactive). The GI50 is 8.57 µM (inactive) in the assay on PC-3; 16.4 µM (inactive) with CCRF-CEM; 20.3 µM (inactive) in the assay with OVCAR-8; 14.6 µM (inactive) in the assay with SK-MEL-2; 16.9 µM (inactive) in the assay with BT-549; 16 µM (inactive) in the assay with NCI-H522. Further, the GI50 in the assay on Malme-3M is 26.2 µM (inactive); in the assay on UACC-257 it was 32.8 µM (inactive); in the assay on MCF7, 19.5 µM (inactive); with M14, 19 µM (inactive).

On to `C=CCNC(=O)CN(CC(=O)O)C1CCCCC1N(CC(=O)O)CC(=O)O` (stereo not drawn), for which the GI50 in the assay on MDA-MB-231, with CAKI-1, in the assay with COLO 205, in the assay on SK-MEL-28, in the assay with 786-0 and in the assay on MOLT-4 was > 100 µM (inactive) throughout. Besides, the GI50 with A498, in the assay on PC-3, in the assay with CCRF-CEM, in the assay on OVCAR-8, with BT-549 and in the assay with NCI-H522 was > 100 µM (inactive) in each case. Moreover, the GI50 in the assay with Malme-3M, in the assay with UACC-257, in the assay on MCF7 and with NCI-H226 was > 100 µM (inactive) in each case.

For `COc1ccc2c(c1OC)OCC(CN(C)C)C2=O` (stereo not drawn), the GI50 was 18.8 µM (inactive) with MDA-MB-231; 3.01 µM (inactive) in the assay with CAKI-1; 8.07 µM (inactive) in the assay on COLO 205; 17.4 µM (inactive) in the assay with SK-MEL-28; 12.6 µM (inactive) with 786-0; 25.2 µM (inactive) with EKVX. Also, the GI50 is 2.23 µM (inactive) in the assay on MOLT-4; 18.7 µM (inactive) with PC-3; 2.15 µM (inactive) in the assay on CCRF-CEM; 22.1 µM (inactive) with OVCAR-8; 16.7 µM (inactive) in the assay on SK-MEL-2; 19.4 µM (inactive) with BT-549. Further, the GI50 in the assay on NCI-H522 was 0.187 µM (active); with Malme-3M it was 18.5 µM (inactive); in the assay with UACC-257, 16.7 µM (inactive); in the assay on MCF7 it was 8.95 µM (inactive); in the assay on M14, 17.3 µM (inactive); in the assay on NCI-H226, > 47.1 µM (inactive).

Source of the values: ChEMBL document CHEMBL1201862, “PubChem BioAssay data set” (2004).
